Experimental data as given in US20070105898A1, “Process for the production of cilostazol” (Apotex Pharmachem Inc., priority 2005, published 2007).

Assay: Particle size distribution of precipitated cilostazol particles
Assay type: physicochemical
Conditions: filtered, dried
Procedure: A hot solution (70-75° C.) of cilostazol (23 g) in 1-methyl-2-pyrrolidinone (69 mL) was slowly added over a period of 5-10 min into water (345 mL) at 0-5° C. with stirring. The suspension was stirred at 0-5° C. for 1-2 hrs, filtered and rinsed with water (40 mL) and methanol (20 mL). The solid was dried under vacuum at 55-60° C. to give 22.1 g (yield 96%) cilostazol as a white powder. Particle size distribution: d(0.1)=0.71 micrometres, d(0.5)=5.94 mircrometres, d(0.9)=30.59 micrometres.
A hot solution (70-75° C.) of cilostazol (20 g) in 1-methyl-2-pyrrolidinone (40 mL) was slowly added over a period of 5-10 min into toluene (250 mL) at 0-5° C. with stirring. The suspension was stirred at 0-5° C. for 1-2 hrs, filtered and rinsed with toluene (100 mL). The solid was dried under vacuum at 55-60° C. to give 18.2 g (yield 91%) cilostazol as a white powder. Particle size distribution: d(0.1)=0.80 micrometres, d(0.5)=3.90 mircrometres, d(0.9)=25.56 micrometres.

[1] = Example 2: hot 1-methyl-2-pyrrolidinone solution added into water at 0-5° C.
[2] = Example 3: hot 1-methyl-2-pyrrolidinone solution added into toluene at 0-5° C.

SMILES: O=C1CCc2cc(OCCCCc3nnnn3C3CCCCC3)ccc2N1 [cilostazol, 6-[4-(1-cyclohexyl-1H-tetrazol-5-yl)butoxy]-3,4-dihydro-2(1H)-quinolinone]
- Particle size distribution d(0.1) [1]: 0.71 micrometres
- Particle size distribution d(0.5) [1]: 5.94 mircrometres
- Particle size distribution d(0.9) [1]: 30.59 micrometres
- Particle size distribution d(0.1) [2]: 0.80 micrometres
- Particle size distribution d(0.5) [2]: 3.90 mircrometres
- Particle size distribution d(0.9) [2]: 25.56 micrometres
